Assay results: patent publication US12329158B2, “Large-scale methods of uniformly coating packaging surfaces with a volatile antimicrobial to preserve food freshness” (AGROFRESH INC., priority 2013, dated 2025)
Converted amounts (≈) assume the structure as drawn.

Assays:
[1] = system: Aspergillus brasiliensis; assay: Headspace treatment of inoculated grains (Example 28); assay type: in vivo; details: for Fungal growth on PDA (mm): 10 mg/L headspace
Experimental: An in vivo assay is used to evaluate the ability of Compound A (1-hydroxy-5-fluoro-1, 3-dihydro-2, 1-benzoxaborole) to control fungal growth of seeds.
Grains consisting of corn, wheat, rice, rye, millet and barley are surface sterilized with 0.825% NaOCl for 1 minute and rinsed thrice with sterile distilled water. The grains are inoculated by soaking them in a 1×10^6 spores/mL suspension of Aspergillus brasiliensis for 1 minute. The excess inoculum is blotted out with a sterile paper towel before plating five seeds in a Petri plate containing 25 mL of PDA. For determination of efficacy, Compound A is diluted in acetone and added to 42.5 mm Whatman #1 filter disks (Cat. No. 1001-042) attached to the inner side of the lid in a dose dependent manner to achieve a final headspace concentration of 0.4, 2, or 10 mg/L. The acetone is permitted to evaporate for five minutes before closing plate and sealing it with parafilm. The plates are incubated at 23° C. for three days.

[2] = system: Penicillium digitatum; assay: Green mold on orange, volatile assay (Example 25); assay type: in vivo; details: 50 mg/L, day 3 at 21 C after 5 days at 1 C
[3] = system: Glomerella cingulata; assay: Volatile MIC assay (Example 11); assay type: cell-based; details: Colletotrichum gloeosporioides, G. cingulata
Experimental: A 3-mL volume of full-strength Potato Dextrose Agar (PDA) is added to each well. After cooling, 1 μL of 1×10^5 spores per mL of Botrytis cinerea, Penicillium expansum, Alternaria alternata, Glomerella cingulata, Penicillium digitatum, Monilinia fruticola, Aspergillus brasiliensis, Colletotrichum acutatum, Fusarium sambucinum, Phytophthora capsici, Geotrichum candidum, Aspergillus niger, Diplodia gossypina or Diaporthe citrii suspension is spotted onto the center of the agar. […] The headspace around the inoculum is then sealed inside the well by the film with the adhering disk containing the fungicide by inverting the plates over the treated disks and sealing to prevent any of the chemical from flaking from the disk and falling onto the inoculated agar. After 3 days of storage at 23° C., cultures are evaluated for percent growth relative to control.

[4] = system: Botrytis cinerea; assay: Volatile release from different materials, MIC (Example 13); assay type: cell-based
Experimental: An in vitro assay is used to evaluate the ability of Compound A to volatilize from different materials and control fungal growth. […] A 3-mL volume of full-strength Potato Dextrose Agar (PDA) is added to each well. […] Plates are inoculated immediately prior to volatile fungicide treatment. The various materials are placed, in duplicate, on the underside of a polyethylene PCR plate sealing film. […] The acetone is permitted to evaporate for five minutes. The headspace around the Botrytis cinerea inoculum is then sealed inside the well by the film with the adhering disk of material containing the fungicide. Plates are inverted, placed over the treated disks and sealed to prevent any of the chemical from flaking from the disk and falling onto the inoculated agar. After three days of storage at 23° C., the cultures are evaluated for percent growth relative to control based on measurement of fungal colony diameter.

[5] = system: B. cinerea; assay: In vitro contact assay, amended agar (Example 24); assay type: cell-based; details: Botrytis cinerea, 72 h; amended agar; 100% control; 3 days at 23 C; read-out: Contact MIC (mg/L) B. cinerea
Experimental: (§1) Contact assay: 6-well (16.5 mL volume per well) microtiter plates are used for an in vitro inhibition assay. […] A 7.5-mL volume of the amended media is added to each well of the microtiter plate. […] The plates are sealed with a clear film and incubated for 3 days at 23° C. After incubation, plates are evaluate for percent growth relative to acetone only control.

[6] = system: P. expansum; assay: In vitro contact assay, amended agar (Example 24); assay type: cell-based; details: Penicillium expansum, 72 h; amended agar; 100% control; 3 days at 23 C; read-out: Contact MIC (mg/L) P. expansum
Experimental: as §1

[7] = system: Botrytis cinerea; assay: In vitro inhibition assay for volatile fungicide, 12-well plates (Example 7); assay type: cell-based
Experimental: For testing activity against fungi pathogens, an in vitro inhibition assay for volatile antimicrobial compounds is developed using 12-Well (7 milliliter (mL) volume per well) microtiter plates. A 3-mL volume of full-strength Potato Dextrose Agar (PDA) is added to each well. After cooling, 1 microliter (μL) of 1×10^6 per mL Botrytis cinerea spore suspension is spot pipetted to the center of the agar. For the first experiment, inoculated plates are allowed to germinate for 5 days at 4° C. For the second experiment, plates are inoculated immediately prior to volatile fungicide treatment. Small Whatman #1 filter disks (Cat. No. 1001-0155) are placed, in duplicate, on the underside of a polyethylene PCR plate sealing film.
The acetone is permitted to evaporate for 5 minutes. The headspace around the Botrytis cinerea inoculum is then sealed inside the well by the film with the adhering disk containing the fungicide. Plates are inverted, placed over the treated disks and sealed to prevent any of the chemical from flaking from the disk and falling onto the inoculated agar. After 14 days of storage at 4° C., cultures are evaluated for percent growth relative to control. […]

[8] = system: Xanthomonas axonopodis; assay: Volatile assay against bacterial pathogens, MBC (Example 12); assay type: cell-based; details: X. axonopodis; headspace concentration; 48 hours at 23 C
Experimental: (§2) 12-Well (6.5 mL volume per well) microtiter plates are used for the in vitro inhibition assay for volatile antimicrobial Compound A against additional bacterial pathogens. A 3-mL volume of Nutrient agar is added to each well and allowed to dry before introducing the pathogen. Escherichia coli, Pectobacterium carotovorum, Xanthomonas axonopodis and Salmonella enterica cell suspensions are adjusted to an optical density of 0.2 to 0.35, and further diluted 1/10, and 15 μL is pipetted to the center of each well and tilted to distribute uniformly. A Whatman #1 filter paper (CAT 1001-0155) is placed on the underside of a polyethylene PCR plate sealing film. […] The films with the treated disks are then applied over the inoculated plates and sealed. Plates are inverted, and incubated at 23° C. for 48 hours. After the incubation period, the bacteria colonies are dislodged in sterile water containing tween 80 (0.001%) and the optical density (OD; 600 nm) is determined. Results are summarized in Table 6, where the headspace concentration required to control at least 80% of bacterial growth is reported.

[9] = system: Escherichia coli; assay: as above; assay type: cell-based; details: E. coli; headspace concentration; 48 hours at 23 C
Experimental: as §2

[10] = system: Pectobacterium carotovorum; assay: as above; assay type: cell-based; details: P. carotovorum; headspace concentration; 48 hours at 23 C
Experimental: as §2

[11] = system: Salmonella enterica; assay: as above; assay type: cell-based; details: S. enterica; headspace concentration; 48 hours at 23 C
Experimental: as §2

## OB1OCc2cc(F)ccc21 [Compound A, 5-fluoro-1,3-dihydro-1-hydroxy-2,1-benzoxaborole]
[1]; Barley
  Fungal growth on PDA (mm): 0 mm
[1]; Corn Dry
  Fungal growth on PDA (mm): 0 mm
[1]; Millet
  Fungal growth on PDA (mm): 0 mm
[1]; Rice
  Fungal growth on PDA (mm): 0 mm
[1]; Rye
  Fungal growth on PDA (mm): 0 mm
[1]; Wheat
  Fungal growth on PDA (mm): 0 mm
[1]; grains, headspace treatment
  control of Aspergillus brasiliensis: 100%
[2]
  Orange Sporulation (mm): 0.0 mm
[3]
  MIC: 17.9 µg/mL (≈ 118 µM)
[4]; volatile release from Acrylic-Coated Fiberglass
  MIC: 0.56 µg/mL (≈ 3.69 µM)
[4]; volatile release from Aramid
  MIC: 2.2 µg/mL (≈ 14.5 µM)
[4]; volatile release from Aramid and Fiberglass
  MIC: 0.56 µg/mL (≈ 3.69 µM)
[4]; volatile release from Cardboard
  MIC: 2.2 µg/mL (≈ 14.5 µM)
[4]; volatile release from Cellulose
  MIC: 0.56 µg/mL (≈ 3.69 µM)
[4]; volatile release from Fiberglass
  MIC: 0.56 µg/mL (≈ 3.69 µM)
[4]; volatile release from PTFE
  MIC: 1.1 µg/mL (≈ 7.24 µM)
[4]; volatile release from PTFE-Coated Fiberglass
  MIC: 0.56 µg/mL (≈ 3.69 µM)
[4]; volatile release from Polyethylene PCR Film
  MIC: 0.28 µg/mL (≈ 1.84 µM)
[4]; volatile release from Silica
  MIC: 0.56 µg/mL (≈ 3.69 µM)
[4]; volatile release from Silicone-Coated Fiberglass
  MIC: 0.56 µg/mL (≈ 3.69 µM)
[4]; volatile release from Vinyl-Coated Polyester
  MIC: 0.56 µg/mL (≈ 3.69 µM)
[5]
  MIC: < 0.08 mg/L
[6]
  MIC: 0.4 mg/L (≈ 2.63 µM)
[7]; 0.0006 mg per disk
  Botrytis inhibition % (in vitro): 46%
[7]; 0.001 mg per disk
  Botrytis inhibition % (in vitro): 69%
[7]; 0.0024 mg per disk
  Botrytis inhibition % (in vitro): 85%
[7]; 0.005 mg per disk
  Botrytis inhibition % (in vitro): 100%
[7]; 0.01 mg per disk
  Botrytis inhibition % (in vitro): 100%
[7]; 0.023 mg per disk
  Botrytis inhibition % (in vitro): 100%
[7]; 0.04 mg per disk
  Botrytis inhibition % (in vitro): 100%
[7]; 0.08 mg per disk
  Botrytis inhibition % (in vitro): 100%
[7]; 0.16 mg per disk
  Botrytis inhibition % (in vitro): 100%
[7]; 0.31 mg per disk
  Botrytis inhibition % (in vitro): 100%
[7]; 0.63 mg per disk
  Botrytis inhibition % (in vitro): 100%
[7]; 1.25 mg per disk
  Botrytis inhibition % (in vitro): 100%
[7]; volatile, 14 days at 4 C
  Rate giving 100% in vitro inhibition of Botrytis cinerea: 0.005 mg/disk
[8]
  Rate (mg/L) offering at least 80% control: 4.5 mg/L
[9]
  Rate (mg/L) offering at least 80% control: 35.7 mg/L
[10]
  Rate (mg/L) offering at least 80% control: 2.2 mg/L
[11]
  Rate (mg/L) offering at least 80% control: 17.9 mg/L
